Earlier results on two molecules are cited in patent US20170007591A1, “Composition to Mitigate Spikes in Blood Sugar” (Panacea Scientific, Inc., priority 2015, published 2017).

One data set has as its target μ-opioid receptor (Homo sapiens, UniProt P35372). The conditions noted are these: acts as non-selective antagonist.
Another data set deals with κ-opioid receptor (Homo sapiens, UniProt P41145). The conditions noted are these: acts as non-selective antagonist.
In another data set the target is CYP2C9 (Homo sapiens, UniProt P11712). The conditions noted are these: in humans.
The next data set concerns the target δ-opioid receptor (Homo sapiens, UniProt P41143). The following applies: acts as non-selective antagonist.
For data set [1] the following is noted: rats; 20 mg piperine dose with 2 g/kg dose of curcumin.

Molecules are shown by their SMILES.

Chain of CYP2C9 (P11712 whole entry): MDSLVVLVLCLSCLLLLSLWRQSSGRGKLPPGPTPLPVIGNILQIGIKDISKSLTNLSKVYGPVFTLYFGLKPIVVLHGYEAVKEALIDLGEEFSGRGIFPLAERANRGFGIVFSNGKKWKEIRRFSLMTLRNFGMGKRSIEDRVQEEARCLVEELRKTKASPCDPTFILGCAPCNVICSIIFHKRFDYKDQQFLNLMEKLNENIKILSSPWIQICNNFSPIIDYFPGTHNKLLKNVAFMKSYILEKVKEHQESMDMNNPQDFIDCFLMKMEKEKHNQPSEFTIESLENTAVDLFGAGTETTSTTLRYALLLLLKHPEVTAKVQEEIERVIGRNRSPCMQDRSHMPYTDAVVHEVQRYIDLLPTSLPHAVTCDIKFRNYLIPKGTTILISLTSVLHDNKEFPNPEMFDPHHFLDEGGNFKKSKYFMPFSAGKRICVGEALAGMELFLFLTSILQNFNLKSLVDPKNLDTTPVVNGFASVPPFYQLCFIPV
Chain of κ-opioid receptor (P41145 whole entry): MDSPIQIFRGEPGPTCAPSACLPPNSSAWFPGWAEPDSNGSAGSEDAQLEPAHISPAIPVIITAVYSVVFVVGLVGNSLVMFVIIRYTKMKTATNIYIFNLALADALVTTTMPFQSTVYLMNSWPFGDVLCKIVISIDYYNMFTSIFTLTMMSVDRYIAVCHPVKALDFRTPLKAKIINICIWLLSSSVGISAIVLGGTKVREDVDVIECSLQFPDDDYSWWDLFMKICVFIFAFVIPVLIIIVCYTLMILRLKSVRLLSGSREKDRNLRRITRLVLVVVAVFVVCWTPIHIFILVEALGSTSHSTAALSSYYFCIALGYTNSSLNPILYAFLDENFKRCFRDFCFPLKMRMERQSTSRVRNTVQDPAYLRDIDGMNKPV
Chain of μ-opioid receptor (P35372 whole entry): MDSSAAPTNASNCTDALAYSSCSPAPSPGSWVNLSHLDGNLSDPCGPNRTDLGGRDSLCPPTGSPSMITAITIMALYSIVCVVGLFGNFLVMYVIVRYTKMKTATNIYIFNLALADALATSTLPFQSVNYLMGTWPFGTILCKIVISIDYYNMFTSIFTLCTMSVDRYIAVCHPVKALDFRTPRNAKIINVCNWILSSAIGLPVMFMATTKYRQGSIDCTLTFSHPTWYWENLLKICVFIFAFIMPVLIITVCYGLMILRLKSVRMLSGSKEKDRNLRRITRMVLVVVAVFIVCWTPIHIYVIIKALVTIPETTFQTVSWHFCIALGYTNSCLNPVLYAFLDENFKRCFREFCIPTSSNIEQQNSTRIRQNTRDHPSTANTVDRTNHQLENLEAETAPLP
Chain of δ-opioid receptor (P41143 whole entry): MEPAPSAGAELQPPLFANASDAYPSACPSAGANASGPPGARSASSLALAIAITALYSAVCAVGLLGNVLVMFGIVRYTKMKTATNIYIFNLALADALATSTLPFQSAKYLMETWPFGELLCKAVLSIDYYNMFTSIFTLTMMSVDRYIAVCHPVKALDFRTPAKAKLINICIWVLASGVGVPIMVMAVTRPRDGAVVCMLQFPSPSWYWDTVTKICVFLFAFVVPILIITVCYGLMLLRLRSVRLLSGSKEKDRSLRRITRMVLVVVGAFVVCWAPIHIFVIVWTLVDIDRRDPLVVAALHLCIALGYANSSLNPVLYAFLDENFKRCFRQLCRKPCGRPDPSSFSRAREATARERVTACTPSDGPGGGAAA

As for `O=c1cc(-c2ccc(O)cc2)oc2cc(O)cc(O)c12` [apigenin, 4′,5,7-trihydroxyflavone], the “affinity for μ-opioid receptor” value at μ-opioid receptor is “nonomolar affinity”. Moreover, the “affinity for κ-opioid receptor” value at κ-opioid receptor is recorded as “nonomolar affinity”. Also, the “inhibition of CYP2C9” value on CYP2C9 is on record as “inhibits the enzyme CYP2C9”. At δ-opioid receptor, the “affinity for δ-opioid receptor” value is recorded as “nonomolar affinity”.

Consider `O=C(/C=C/C=C/c1ccc2c(c1)OCO2)N1CCCCC1` [piperine], for which, in data set [1], the “increase of the bioavailability of curcumin” value is given as 154%.
